We go through three molecules from US20250011734A1, “DGAT1/2-INDEPENDENT ENZYME SYNTHESIZING STORAGE LIPIDS (DIESL)” (STICHTING HET NEDERLANDS KANKER INSTITUUT-ANTONI VAN …, priority 2021, published 2025).

The subject of one assay is RPE1 cells. Description: Mitochondrial membrane potential and ATP levels in RPE1 cells lacking DIESL cultured without lipoproteins. The class given is cell-based. As to the method:
For BODIPY 493/503 measurements in fixed HAP1 cells, HAP1 cells, grown in 10 cm plates, were collected by trypsinization and were fixed in Fix Buffer I (BD Biosciences) for 10 minutes at 37° C. Cells were pelleted, washed with FACS buffer (10% FBS in PBS), resuspended in FACS buffer and counted. 10 million cells were stained with 1 μg/ml BODIPY 493/503 and 5 μg/ml DAPI (Invitrogen), diluted in FACS buffer, for one hour at room temperature. Cells were washed once in FACS buffer, then passed through a 35 μm nylon mesh cell strainer into a FACS tube. Fluorescence was analyzed on an LSR Fortessa (BD Biosciences) analytical flow cytometer, using 405 and 488 nm lasers to detect DAPI and BODIPY 493/503, respectively. Data were analyzed using FlowJo (BD Life Sciences). Fluorescence plots represent the fluorescent signal measured in single haploid G1 cells, as determined by DAPI fluorescence intensity. […] Fluorescence (using a 561 nm laser) and data were analyzed as above. Fluorescence plots represent the fluorescent signal measured in single cells. Membrane potential was calculated by subtracting the fluorescence mean of depolarized (CCCP-treated) cells. RPE1 cells were plated in 96-well plates and ATP levels were measured using CellTitre-Glo (Promega) according to the manufacturer's instructions. […]

For assay [1], the target named is T1, 3xHA-tagged DIESL (human TMEM68, DGAT1/2-Independent Enzyme Synthesizing Storage Lipids) (human, UniProt Q96MH6 1-324, N-glycosylation at its N-terminus (N-X-S/T motif; N5Q mutant served as negative control)).
T1 construct: It is an ER membrane protein and was assayed in cells or cell lysates; also called 3xHA-DIESL; transmembrane protein 68; not shown: the N-terminal position is inferred only from the name 3xH
T1 sequence: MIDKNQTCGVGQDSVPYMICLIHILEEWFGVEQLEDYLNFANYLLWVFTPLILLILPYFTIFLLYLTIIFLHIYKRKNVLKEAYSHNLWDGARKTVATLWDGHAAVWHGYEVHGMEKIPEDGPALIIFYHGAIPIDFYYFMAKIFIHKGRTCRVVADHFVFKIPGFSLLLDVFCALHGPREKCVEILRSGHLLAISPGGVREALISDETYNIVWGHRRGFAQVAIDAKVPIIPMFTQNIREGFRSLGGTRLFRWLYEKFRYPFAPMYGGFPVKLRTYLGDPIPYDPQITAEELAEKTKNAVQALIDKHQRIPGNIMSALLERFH
Description: summary of the examples (crosslinking and co-immunoprecipitation). On the procedure:
HAP1 ΔDIESL and ATMX1ΔDIESL cells reconstituted with 3xHA-DIESL, or HeLa WT cells expressing 3xHA-DIESL, were washed with PBS and incubated in 1% paraformaldehyde for 20 minutes at room temperature. Cross-linking reactions were quenched by incubation in 0.2 M glycine for 10 minutes. Cells were then lysed in RIPA buffer on ice as described above, sonicated and protein concentrations were determined. Samples were separated by SDS-PAGE and immunoblotted as described above.
HAP1 ΔDIESL cells reconstituted with 3xHA-DIESL, grown to confluence in a 6-well plate, were lysed in 400 μl IP buffer (25 mM HEPES PH 7.0, 150 mM NaCl, 1% detergent [Tween-20 unless otherwise indicated], and protease/phosphatase inhibitor cocktails) on ice, sonicated and cleared by centrifugation. 250 μl of lysate was incubated with 10 μl of PBS-washed anti-HA magnetic beads (Pierce) overnight while rotating at 4° C. The following day, beads were washed three times in IP buffer before elution in SDS-PAGE sample buffer at 90° C. for 20 minutes. One-quarter of this eluate (along with the corresponding amount of input sample) were separated by SDS-PAGE and subjected to immunoblot analysis as above.

On to `CCOC(=O)[C@@]1(CCCCCCOc2ccc(Cl)cc2)CO1` [etomoxir], for which the “Effect of CPT1A inhibition on the oleic acid rescue” value with RPE1 cells (DIESL-deficient RPE1 cells without lipoproteins plus oleic acid, data not shown) is given as “sensitive”.

Consider `CCCCCCCC/C=C\CCCCCCCC(=O)O` [oleic acid], for which the “Rescue of decreased mitochondrial membrane potential and ATP levels” value in the assay on RPE1 cells (DIESL-deficient RPE1 cells, lipoprotein-deficient medium supplemented with 50 µM oleic acid for 24 hours, FIG. 19F) is recorded as “rescued”.

B1: Thioredoxin related transmembrane protein 1 (TMX1), human, endogenous in HAP1 / HeLa cells (enzyme)
chain: RRSNVRVITDENWRELLEGDWMIEFYAPWCPACQNLQPEWESFAEWGEDLEVNIAKVDVTEQPGLSGRFIITALPTIYHCKDGEFRRYQGPRTKKDFINFISDKEWKSIEPVSSWFGPGSVLMSSMSALFQLSMWIRTCHNYFIEDLGLPVWGSYTVFALATLFSGLLLGLCMIFVADCLCPSKRRRPQPYPYPSKKLLSESAQPLKKVEEEQEADEEDVSEEEAESKEGTNKDFPQNAIRQRSLGPSLATDKS
notes: Endogenous TMX1 of human cell lines (HAP1, HeLa), an ER membrane protein, detected with anti-TMX1 antibodies; also called transmembrane thioredoxin 1; TMX1 polypeptide
On to B1, for which, in assay [1], the binding result is “binds”.
